Test system: p-ERK1/2 in MOLM-13 AML cells
Test: Phospho-ERK1/2 immunoblot analysis, MOLM-13
Assay type: cell-based
Details: #02 3, 10, 30 μM, RMC-4550 1 μM
Protocol: Because SHP2 activity is critical for ERK activation, we used phospho-ERK1/2 (p-ERK1/2) as a more direct readout of SHP2 inhibitor efficacy. […] However, a greater effect of #02 was observed after 24 h treatment. […] This p-ERK rebound in MOLM-13 cells treated with RMC-4550 is reminiscent of previously reported data from human hepatoma Hep3B cells treated with SHP099.
Total protein extracts were prepared in modified RIPA lysis buffer (25 mM Tris-HCl, pH 7.4, 10% glycerol, 0.2% Triton™ X-100, 150 mM NaCl, 2 mM Na3VO4, 1 mM EDTA) containing a protease inhibitor cocktail (Roche Applied Science, Indianapolis, IN). Equal amounts of protein were separated on 4-12% (p-ERK1/2 blots) or 4-20% (SHP2 blots) Bis-Tris gels by SDS-PAGE and transferred to nitrocellulose (p-ERK1/2 blots) or 0.2 μm PVDF (SHP2 blots) membranes. Membranes were blocked in 5% dry milk (Bio-Rad, Hercules, CA) in TBS-Tween 20 (0.1% vol/vol; TBS-T) for 1 h at room temperature. Protein-bound membranes were incubated with indicated primary antibody overnight at 4° C. After washing three times with TBS-T, membranes were incubated for 1 h with horseradish peroxidase-conjugated secondary antibody, then visualized by an ECL Prime detection system (GE Healthcare). Immunoblotting experiments were carried out at least three times and representative images are shown. Densitometric quantitation of immunoblots was performed using Image Studio Lite Software. Changes of phosphorylated ERK1/2 to total ERK1/2 rations are expressed as percentage of the vehicle-treated controls. The following antibodies were used: Phospho-Erk1/2 Ab, Cell Signaling, #9101S; total Erk1/2 Ab, Cell Signaling, #9102S; SHP2 Ab, Bethyl, A301-544A, lot #1; GAPDH (14C10) mAb, Cell Signaling, #2118S, lot #14.

O=C(Nc1ccccc1)c1cc(-c2ccc(/C=C3\Sc4ccccc4C3=O)o2)ccc1O [#02, (Z)-2-hydroxy-5-(5-((3-oxobenzo[b]thiophen-2(3H)-ylidene)methyl)furan-2-yl)-N-phenylbenzamide]
ERK1/2 activation (p-ERK1/2 levels) (MOLM-13, 3 h treatment): dose-dependently inhibits ERK1/2 activation | ERK1/2 activation (p-ERK1/2 levels) (MOLM-13, 24 h treatment): dose-dependently inhibits ERK1/2 activation
